From PubChem BioAssay (NCI)
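GI50 = concentration required for 50% inhibition of growth. The concentration for full growth arrest is given as TGI.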

Tests used:
Experiment in all cases: DTP human tumour cell line panel, 384-well format
[1] = test system: NCI-H226 lung
[2] = test system: NCI-H23 lung
[3] = test system: NCI-H322M lung
[4] = test system: NCI-H460 NSCLC
[5] = test system: NCI-H522 lung
[6] = test system: NCI/ADR-RES ovarian
[7] = test system: OVCAR-3 ovarian
[8] = test system: OVCAR-4 ovarian
[9] = test system: OVCAR-5 ovarian
[10] = test system: OVCAR-8 ovarian
[11] = test system: PC-3 prostate
[12] = test system: RPMI-8226 leukemia
[13] = test system: RXF 393 renal
[14] = test system: SF-268 CNS
[15] = test system: SF-295 CNS
[16] = test system: SF-539 CNS
[17] = test system: SK-MEL-28 melanoma
[18] = test system: SK-MEL-5 melanoma
[19] = test system: SK-OV-3 ovarian
[20] = test system: SN12C renal
[21] = test system: SNB-19 CNS
[22] = test system: SNB-75 CNS
[23] = test system: SW-620 colon
[24] = test system: T-47D breast
[25] = test system: TK-10 renal
[26] = test system: U251 glioblastoma
[27] = test system: UACC-257 melanoma
[28] = test system: UACC-62 melanoma
[29] = test system: UO-31 renal

SMILES: O=C(Oc1ccc([N+](=O)[O-])cc1)N1CCC(C(O)(c2ccc3c(c2)OCO3)c2ccc3c(c2)OCO3)CC1
- GI50 [1]: > 100 µM
- TGI [1]: > 100 µM
- GI50 [2]: > 100 µM
- TGI [2]: > 100 µM
- GI50 [3]: > 100 µM
- TGI [3]: > 100 µM
- GI50 [4]: > 100 µM
- TGI [4]: > 100 µM
- GI50 [5]: > 100 µM
- TGI [5]: > 100 µM
- GI50 [6]: > 100 µM
- TGI [6]: > 100 µM
- GI50 [7]: > 100 µM
- TGI [7]: > 100 µM
- GI50 [8]: > 100 µM
- TGI [8]: > 100 µM
- GI50 [9]: > 100 µM
- TGI [9]: > 100 µM
- GI50 [10]: > 100 µM
- TGI [10]: > 100 µM
- GI50 [11]: > 100 µM
- TGI [11]: > 100 µM
- GI50 [12]: > 100 µM
- TGI [12]: > 100 µM
- GI50 [13]: 98.7 µM
- TGI [13]: > 100 µM
- GI50 [14]: 11.1 µM
- TGI [14]: > 100 µM
- GI50 [15]: > 100 µM
- TGI [15]: > 100 µM
- GI50 [16]: > 100 µM
- TGI [16]: > 100 µM
- GI50 [17]: > 100 µM
- TGI [17]: > 100 µM
- GI50 [18]: > 100 µM
- TGI [18]: > 100 µM
- GI50 [19]: > 100 µM
- TGI [19]: > 100 µM
- GI50 [20]: > 100 µM
- TGI [20]: > 100 µM
- GI50 [21]: > 100 µM
- TGI [21]: > 100 µM
- GI50 [22]: 24.6 µM
- TGI [22]: > 100 µM
- GI50 [23]: > 100 µM
- TGI [23]: > 100 µM
- GI50 [24]: 2.93 µM
- TGI [24]: > 100 µM
- GI50 [25]: > 100 µM
- TGI [25]: > 100 µM
- GI50 [26]: > 100 µM
- TGI [26]: > 100 µM
- GI50 [27]: > 100 µM
- TGI [27]: > 100 µM
- GI50 [28]: > 100 µM
- TGI [28]: > 100 µM
- GI50 [29]: > 100 µM
- TGI [29]: > 100 µM
